{
  "source": "the supplement of paper PMC10307832",
  "assay_in_all_cases": "relative viability (nuclei count vs DMSO), 5 days (fraction); higher = more cells survive",
  "key": {"NCI-H1666": {"test_system": "NCI-H1666", "procedure,_shortened": "(§1)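 Cells from lung cancer lines were seeded into 1536-well plates and, one day later, dosed by pin tool. Treatments were either a single drug or a fixed dose of an anchor drug with five library-drug doses (not always all listed) in √10 steps. After 5 days, nuclei were stained in a one-step fixation (final 0.05% Triton X-100, 1% formaldehyde, 1 ug/ml Hoechst) and counted on 4× images, and relative viability is the treated-to-vehicle nuclei ratio, as the median of duplicate plates.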"}, "NCI-H1915": {"test_system": "NCI-H1915", "procedure,_shortened": "as §1"}, "NCI-H460": {"test_system": "NCI-H460", "procedure,_shortened": "as §1"}, "UMC-11": {"test_system": "UMC-11", "procedure,_shortened": "as §1"}, "LC-2-ad": {"test_system": "LC-2-ad", "procedure,_shortened": "as §1"}, "HCC-78": {"test_system": "HCC-78", "procedure,_shortened": "as §1"}, "NCI-H2170": {"test_system": "NCI-H2170", "procedure,_shortened": "as §1"}, "NCI-H1792": {"test_system": "NCI-H1792", "procedure,_shortened": "as §1"}, "NCI-H358": {"test_system": "NCI-H358", "procedure,_shortened": "as §1"}, "NCI-H2085": {"test_system": "NCI-H2085", "procedure,_shortened": "as §1"}, "HOP-62": {"test_system": "HOP-62", "procedure,_shortened": "as §1"}},
  "data": [
    {"molecule": "O=c1cc(-c2cccc3c2Sc2ccccc2S3)oc(N2CCOCC2)c1", "note": "+ Cc1nc(NC(=O)N2CCC[C@H]2C(N)=O)sc1-c1ccnc(C(C)(C)C(F)(F)F)c1 [Alpelisib] (partner 2 µM)", "values": [
      {"measurement": "relative viability", "setting": "NCI-H1666; first compound 0.08 µM", "result": 0.789},
      {"measurement": "relative viability", "setting": "NCI-H1666; first compound 0.253 µM", "result": 1.13},
      {"measurement": "relative viability", "setting": "NCI-H1666; first compound 0.8 µM", "result": 0.82},
      {"measurement": "relative viability", "setting": "NCI-H1666; first compound 2.53 µM", "result": 0.854},
      {"measurement": "relative viability", "setting": "NCI-H1666; first compound 8 µM", "result": 0.681},
      {"measurement": "relative viability", "setting": "NCI-H1915; first compound 0.08 µM", "result": 1.15},
      {"measurement": "relative viability", "setting": "NCI-H1915; first compound 0.253 µM", "result": 1.12},
      {"measurement": "relative viability", "setting": "NCI-H1915; first compound 0.8 µM", "result": 1.07},
      {"measurement": "relative viability", "setting": "NCI-H1915; first compound 2.53 µM", "result": 0.994},
      {"measurement": "relative viability", "setting": "NCI-H1915; first compound 8 µM", "result": 1.11},
      {"measurement": "relative viability", "setting": "NCI-H460; first compound 0.08 µM", "result": 0.472},
      {"measurement": "relative viability", "setting": "NCI-H460; first compound 0.253 µM", "result": 0.682},
      {"measurement": "relative viability", "setting": "NCI-H460; first compound 0.8 µM", "result": 0.451},
      {"measurement": "relative viability", "setting": "NCI-H460; first compound 2.53 µM", "result": 0.57},
      {"measurement": "relative viability", "setting": "NCI-H460; first compound 8 µM", "result": 0.394},
      {"measurement": "relative viability", "setting": "UMC-11; first compound 0.08 µM", "result": 0.965},
      {"measurement": "relative viability", "setting": "UMC-11; first compound 0.253 µM", "result": 1.35},
      {"measurement": "relative viability", "setting": "UMC-11; first compound 0.8 µM", "result": 1.17},
      {"measurement": "relative viability", "setting": "UMC-11; first compound 2.53 µM", "result": 0.98},
      {"measurement": "relative viability", "setting": "UMC-11; first compound 8 µM", "result": 1.42},
      {"measurement": "relative viability", "setting": "LC-2-ad; first compound 0.08 µM", "result": 0.884},
      {"measurement": "relative viability", "setting": "LC-2-ad; first compound 0.253 µM", "result": 0.908},
      {"measurement": "relative viability", "setting": "LC-2-ad; first compound 0.8 µM", "result": 0.844},
      {"measurement": "relative viability", "setting": "LC-2-ad; first compound 2.53 µM", "result": 0.806},
      {"measurement": "relative viability", "setting": "LC-2-ad; first compound 8 µM", "result": 0.75},
      {"measurement": "relative viability", "setting": "HCC-78; first compound 0.08 µM", "result": 0.355},
      {"measurement": "relative viability", "setting": "HCC-78; first compound 0.253 µM", "result": 0.319},
      {"measurement": "relative viability", "setting": "HCC-78; first compound 0.8 µM", "result": 0.305},
      {"measurement": "relative viability", "setting": "HCC-78; first compound 2.53 µM", "result": 0.307},
      {"measurement": "relative viability", "setting": "HCC-78; first compound 8 µM", "result": 0.339},
      {"measurement": "relative viability", "setting": "NCI-H2170; first compound 0.08 µM", "result": 0.791},
      {"measurement": "relative viability", "setting": "NCI-H2170; first compound 0.253 µM", "result": 0.835},
      {"measurement": "relative viability", "setting": "NCI-H2170; first compound 0.8 µM", "result": 0.933},
      {"measurement": "relative viability", "setting": "NCI-H2170; first compound 2.53 µM", "result": 0.747},
      {"measurement": "relative viability", "setting": "NCI-H2170; first compound 8 µM", "result": 0.841},
      {"measurement": "relative viability", "setting": "NCI-H1792; first compound 0.253 µM", "result": 0.722},
      {"measurement": "relative viability", "setting": "NCI-H1792; first compound 0.8 µM", "result": 0.741},
      {"measurement": "relative viability", "setting": "NCI-H1792; first compound 2.53 µM", "result": 0.674},
      {"measurement": "relative viability", "setting": "NCI-H1792; first compound 8 µM", "result": 0.712},
      {"measurement": "relative viability", "setting": "NCI-H358; first compound 0.08 µM", "result": 0.776},
      {"measurement": "relative viability", "setting": "NCI-H358; first compound 0.253 µM", "result": 0.824},
      {"measurement": "relative viability", "setting": "NCI-H358; first compound 0.8 µM", "result": 0.816},
      {"measurement": "relative viability", "setting": "NCI-H358; first compound 2.53 µM", "result": 0.786},
      {"measurement": "relative viability", "setting": "NCI-H358; first compound 8 µM", "result": 0.795},
      {"measurement": "relative viability", "setting": "NCI-H2085; first compound 0.08 µM", "result": 0.907},
      {"measurement": "relative viability", "setting": "NCI-H2085; first compound 0.253 µM", "result": 0.93},
      {"measurement": "relative viability", "setting": "NCI-H2085; first compound 0.8 µM", "result": 1.05},
      {"measurement": "relative viability", "setting": "NCI-H2085; first compound 2.53 µM", "result": 0.779},
      {"measurement": "relative viability", "setting": "NCI-H2085; first compound 8 µM", "result": 0.72},
      {"measurement": "relative viability", "setting": "HOP-62; first compound 0.08 µM", "result": 0.962},
      {"measurement": "relative viability", "setting": "HOP-62; first compound 0.253 µM", "result": 0.85}
    ]}
  ]
}
